Measured values taken from ChEMBL document CHEMBL5053536, “Discovery of Quinazoline-2,4(1H,3H)-dione Derivatives Containing 3-Substituted Piperizines as Potent PARP-1/2 Inhibitors─Design, Synthesis, In Vivo Antitumor Activity, and X-ray Crystal Structure Analysis” (J Med Chem, 2021).
Activity calls are given as the source filed them. No cut-off for these calls is given here.

Key:
[1] = system: MX1; experiment: Antitumor activity against human MX1 cells xenografted in athymic nu/nu mouse assessed as tumor growth inhibition at 12.5 to 25 mg/kg, po administered once daily for 5 days and measured on day 7 in presence of 50 mg/kg TMZ; type: functional; conditions: dose 12.5-25 mg/kg, time 7 day
[2] = system: U-87 MG; experiment: Antitumor activity against human U-87MG cells xenografted in BALB/c mouse assessed as reduction in tumor volume at 25 mg/kg, po administered once daily for 5 days and measured on day 32 in presence of 30 mg/kg TMZ by MRI scanner; type: functional, U-87MG ATCC; conditions: time 32 day
[3] = system: T98G; experiment: Cytotoxicity against human T98G cells assessed as reduction in cell viability at 5 to 10 uM incubated for 72 hrs in presence of TMZ by MTT assay; type: functional, cell-based; conditions: dose 5-10 µM
[4] = target: T1, Poly [ADP-ribose] polymerase 1 (Homo sapiens, UniProt P09874); experiment: Binding affinity to recombinant human PARP1 assessed as dissociation constant by SPR assay
T1 sequence (P09874 whole entry): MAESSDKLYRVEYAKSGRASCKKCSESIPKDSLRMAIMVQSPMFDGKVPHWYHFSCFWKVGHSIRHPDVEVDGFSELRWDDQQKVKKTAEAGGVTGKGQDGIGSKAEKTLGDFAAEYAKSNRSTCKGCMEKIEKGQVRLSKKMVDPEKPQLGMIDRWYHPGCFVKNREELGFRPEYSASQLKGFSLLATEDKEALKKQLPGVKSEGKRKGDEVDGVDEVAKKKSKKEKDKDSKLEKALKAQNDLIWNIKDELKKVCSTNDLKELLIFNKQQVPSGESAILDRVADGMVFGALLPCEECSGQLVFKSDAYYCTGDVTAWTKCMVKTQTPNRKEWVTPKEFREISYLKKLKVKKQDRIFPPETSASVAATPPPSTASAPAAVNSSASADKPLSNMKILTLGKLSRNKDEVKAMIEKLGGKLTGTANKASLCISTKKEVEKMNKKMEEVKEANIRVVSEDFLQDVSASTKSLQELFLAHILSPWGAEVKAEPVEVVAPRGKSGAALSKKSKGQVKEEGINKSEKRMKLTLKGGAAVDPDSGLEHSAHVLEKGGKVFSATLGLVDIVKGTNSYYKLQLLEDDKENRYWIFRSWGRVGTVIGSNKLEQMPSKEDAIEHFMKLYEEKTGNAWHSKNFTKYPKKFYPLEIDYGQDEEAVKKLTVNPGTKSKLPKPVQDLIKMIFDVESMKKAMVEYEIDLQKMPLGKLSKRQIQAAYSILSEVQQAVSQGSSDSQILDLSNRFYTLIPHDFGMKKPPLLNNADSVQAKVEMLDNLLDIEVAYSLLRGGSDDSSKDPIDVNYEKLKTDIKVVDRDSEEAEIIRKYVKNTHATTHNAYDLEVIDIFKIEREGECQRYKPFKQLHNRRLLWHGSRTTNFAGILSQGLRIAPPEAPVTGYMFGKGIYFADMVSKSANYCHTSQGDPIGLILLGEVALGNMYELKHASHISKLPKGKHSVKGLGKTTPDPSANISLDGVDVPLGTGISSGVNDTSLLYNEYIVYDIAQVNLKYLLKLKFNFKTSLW

[5] = system: U-251; experiment: Inhibition of PARP1/2-mediated DNA repair in human U-251 cells assessed as increase in […] expression at 1 to 10 uM after 24 hrs in absence of TMZ by Western blot analysis; type: cell-based; conditions: dose 1-10 µM
[6] = system: U-251; experiment: Inhibition of PARP1/2-mediated DNA repair in human U-251 cells assessed as reduction in PAR formation at 1 to 10 uM after 24 hrs in presence of TMZ by Western blot analysis; type: cell-based; conditions: dose 1-10 µM
[7] = MRT(0 to infinity) in Beagle dog at 20 mg/kg, po measured upto 24 hrs by LC-MS/MS analysis; type: ADME, organism-based, Canis lupus familiaris; conditions: in vivo
[8] = AUC(0 to t) in Sprague-Dawley rat at 20 mg/kg, po measured upto 24 hrs by LC-MS/MS analysis; type: ADME, organism-based; design: time < 24 hrs, dose 20 mg/kg, route po; conditions: in vivo
[9] = system: U-87 MG; experiment: Antitumor activity against human U-87MG cells xenografted in BALB/c mouse assessed as T/C ratio at 25 mg/kg, po administered once daily for 5 days and measured upto 32 days in presence of 30 mg/kg TMZ by MRI scanner; type: functional, U-87MG ATCC; conditions: time <= 32 day
[10] = Oral bioavailability in Beagle dog at 20 mg/kg measured upto 24 hrs by LC-MS/MS analysis; type: ADME, organism-based, Canis lupus familiaris; conditions: in vivo
[11] = system: U-251; experiment: Inhibition of PARP1/2-mediated DNA repair in human U-251 cells assessed as increase in […] expression at 1 to 10 uM after 24 hrs in presence of TMZ by Western blot analysis; type: cell-based; conditions: dose 1-10 µM
[12] = Half life in BALB/c mouse at 25 mg/kg, po measured upto 24 hrs by LC-MS/MS analysis; type: ADME, organism-based; conditions: in vivo
[13] = system: MDA-MB-436; experiment: Antitumor activity against human MDA-MB-436 cells xenografted in po dosed athymic nu/nu mouse assessed as tumor growth inhibition administered once daily for 17 days; type: functional, organism-based; conditions: time 17.0 day
[14] = system: T98G; experiment: Inhibition of PARP1/2-mediated DNA repair in human T98G cells assessed as reduction in PAR formation at 1 to 10 uM after 24 hrs in presence of TMZ by Western blot analysis; type: cell-based; conditions: dose 1-10 µM
[15] = system: MDA-MB-436; experiment: Antitumor activity against human MDA-MB-436 cells xenografted in athymic nu/nu mouse assessed as tumor growth inhibition at 20 to 80 mg/kg, po administered once daily for 17 days; type: functional; conditions: dose 20-80 mg/kg, time 17 day
[16] = AUC(0 to infinity) in Beagle dog at 20 mg/kg, po measured upto 24 hrs by LC-MS/MS analysis; type: ADME, organism-based, Canis lupus familiaris; design: dose 20 mg/kg, time < 24 hrs, route po; conditions: in vivo
[17] = system: U-87 MG; experiment: Antitumor activity against human U-87MG cells xenografted in BALB/c mouse assessed as reduction in tumor volume at 50 mg/kg, po administered once daily for 5 days and measured on day 8 by MRI scanner (reference value: 202 +/- 120.4 mm3); type: functional, U-87MG ATCC; conditions: time 8 day
[18] = target: Poly [ADP-ribose] polymerase 2 (Homo sapiens, UniProt Q9UGN5); experiment: Binding affinity to recombinant human PARP2 assessed as dissociation half life by SPR assay
Chain of Poly [ADP-ribose] polymerase 2 (Q9UGN5 whole entry): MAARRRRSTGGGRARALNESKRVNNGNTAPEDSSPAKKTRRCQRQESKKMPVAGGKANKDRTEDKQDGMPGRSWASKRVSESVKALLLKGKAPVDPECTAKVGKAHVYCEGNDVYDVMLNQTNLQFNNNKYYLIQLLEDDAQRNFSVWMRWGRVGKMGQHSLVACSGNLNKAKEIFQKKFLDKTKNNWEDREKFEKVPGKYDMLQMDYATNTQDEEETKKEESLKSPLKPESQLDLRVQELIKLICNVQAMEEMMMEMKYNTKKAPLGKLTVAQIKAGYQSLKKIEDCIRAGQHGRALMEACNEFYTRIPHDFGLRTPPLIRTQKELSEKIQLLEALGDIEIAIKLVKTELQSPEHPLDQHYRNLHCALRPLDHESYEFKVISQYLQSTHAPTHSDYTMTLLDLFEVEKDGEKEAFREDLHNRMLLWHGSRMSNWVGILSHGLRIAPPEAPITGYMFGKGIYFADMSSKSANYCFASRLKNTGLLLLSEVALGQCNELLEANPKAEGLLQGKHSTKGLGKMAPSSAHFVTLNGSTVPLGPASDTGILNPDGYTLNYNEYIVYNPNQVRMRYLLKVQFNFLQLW

[19] = AUC(0 to infinity) in Beagle dog at 0.4 mg/kg, iv measured upto 24 hrs by LC-MS/MS analysis; type: ADME, organism-based, Canis lupus familiaris; design: dose 0.4 mg/kg, time < 24 hrs, route iv; conditions: in vivo
[20] = system: Mus musculus; experiment: Toxicity in BALB/c mouse xenografted with human U-87MG cells assessed as effect on body weight at 50 mg/kg, po administered once daily for 5 days and measured on day 8 (reference value: 18.2 +/- 0.6 g); type: organism-based; conditions: in vivo, 192 h, time 8 day
[21] = MRT(0 to t) in BALB/c mouse at 25 mg/kg, po measured upto 24 hrs by LC-MS/MS analysis; type: ADME, organism-based; conditions: in vivo
[22] = system: Mus musculus; experiment: Toxicity in athymic nu/nu mouse xenografted with human MX1 cells assessed as reduction in body weight at 12.5 to 25 mg/kg, po administered once daily for 5 days and measured upto day 17; type: organism-based; conditions: in vivo, 408 h, dose 12.5-25 mg/kg, time < 17 day
[23] = Acute toxicity in po dosed Crl: […](ICR)-BR mouse after 14 days; type: organism-based; conditions: in vivo, time 14 day
[24] = system: U-251; experiment: Cytotoxicity against TMZ-resistant human U-251 cells assessed as reduction in cell viability at 5 to 10 uM incubated for 72 hrs in presence of TMZ by MTT assay; type: functional, cell-based; conditions: dose 5-10 µM
[25] = system: Mus musculus; experiment: Toxicity in BALB/c mouse xenografted with human U-87MG cells assessed as effect on body weight at 50 mg/kg, po administered once daily for 5 days and measured on day 8 in presence of 30 mg/kg TMZ (reference value: 18.5 +/- 1 g); type: organism-based; conditions: in vivo, 192 h, time 8 day
[26] = AUC(0 to t) in BALB/c mouse at 25 mg/kg, po measured upto 24 hrs by LC-MS/MS analysis; type: ADME, organism-based; design: dose 25 mg/kg, time < 24 hrs, route po; conditions: in vivo
[27] = system: MX1; experiment: Antitumor activity against human MX1 cells xenografted in athymic nu/nu mouse assessed as tumor growth inhibition at 25 mg/kg, po administered once daily for 5 days and measured on day 17 in presence of 50 mg/kg TMZ; type: functional; conditions: Mus musculus, MX1, 408 h, time 17 day, read-out: TGI
[28] = system: U-87 MG; experiment: Cytotoxicity against human U87MG cells assessed as reduction in cell viability at 5 to 10 uM incubated for 72 hrs in presence of TMZ by MTT assay; type: functional, cell-based; conditions: U-87MG ATCC, dose 5-10 µM
[29] = system: Daoy; experiment: Cytotoxicity against human Daoy cells assessed as reduction in cell viability at 5 to 10 uM incubated for 72 hrs in presence of TMZ by MTT assay; type: functional, cell-based; conditions: dose 5-10 µM
[30] = MRT(0 to t) in Beagle dog at 20 mg/kg, po measured upto 24 hrs by LC-MS/MS analysis; type: ADME, organism-based, Canis lupus familiaris; conditions: in vivo
[31] = system: U-87 MG; experiment: Antitumor activity against human U-87MG cells xenografted in BALB/c mouse assessed as tumor growth inhibition at 25 mg/kg, po administered once daily for 5 days and measured upto 32 days in presence of 30 mg/kg TMZ by MRI scanner; type: functional, U-87MG ATCC; conditions: 768 h, time <= 32 day, read-out: TGI
[32] = target: T1, Poly [ADP-ribose] polymerase 1; experiment: Binding affinity to recombinant human PARP1 assessed as dissociation half life by SPR assay
[33] = system: T98G; experiment: Inhibition of PARP1/2-mediated DNA repair in human T98G cells assessed as reduction in PAR formation at 1 to 10 uM after 24 hrs in absence of TMZ by Western blot analysis; type: cell-based; conditions: dose 1-10 µM

In the case of `CC[C@@H]1CN(C(=O)c2cc(Cn3c(=O)[nH]c(=O)c4ccccc43)ccc2F)CCN1CC`, the TGI [1] is reported as greater than 90%, the Activity [2] is reported as 10.3 mm3 and the Activity [3] is reported as “Active”. The Kd [4] was 1.92 nM, the inhibition [5] was “Active” and the inhibition [6] was “Active”. For the same compound, the MRT inf [7] was 4.85 h, the AUC(0-t) at 24 h [8] was 330 ng·h/mL and the T/C [9] was 12.1%. The bioavailability [10] was 48.3%, the inhibition [11] was “Active” and the half-life [12] was 0.57 h. For the same compound, the Activity [13] was “Dose-dependent effect”, the inhibition [14] was “Active” and the TGI [15] was 68%. The AUC(0-inf) [16] was 34600 ng·h/mL, the Activity [17] was 218.6 mm3 and the T1/2 [18] was 5.48 min. It also gave an AUC(0-inf) [19] of 1430 ng·h/mL, an Activity [20] of 15.3 g and an MRT last at 24 h [21] of 0.92 h. The Activity [22] was “Non-Toxic”, the LD50 at 336 h [23] was 3500 mg/kg and the Activity [24] was “Active”. It also gave an Activity [25] of 16.3 g, an AUC(0-t) at 24 h [26] of 555 ng·h/mL and an inhibition in vivo at 25 mg/kg [27] of 86.8%. For the same compound, the Activity [28] was “Active”, the Activity [29] was “Active” and the MRT last at 24 h [30] was 4.58 h. For the same compound, the inhibition in vivo at 25 mg/kg [31] was 87.9%, the T1/2 [32] was 1.26 h and the inhibition [33] was “Active”.
